Results: patent US20200338045A1, “ISOINDOLINE COMPOSITIONS AND METHODS FOR TREATING NEURODEGENERATIVE DISEASE” (priority 2017, published 2020)
Entries after “also recorded” stand apart in the source; their conditions may differ. Like-named read-outs stand apart in the source and are kept apart here.

What was measured:
[1] = system: hippocampal/cortical cultures; test: Neurogranin expression study in vitro; format: cell-based; settings: Aβ42 oligomers 500 nM 1 hr, then CT1812 4.8 nM 24 hr; 21 DIV cultures
Experimental: Neurons were fixed in 3.75% formaldehyde and stained with full-length neurogranin (Abcam catalogue # ab23570, used in combination with novel Ng7 to detect full length neurogranin in Alzheimer's disease patient brain IP; Kvartsberg et al. 2015 Blennow lab), MAP2 (Millipore), and 4G8 (Biolegend) antibodies. Imaging was performed on Cellomics VX automated microscope with a 20×, 0.75 NA objective and analyzed using a compartmental analysis algorithm to measure staining in the nucleus versus cytoplasm.

[2] = Phase 1 single ascending dose (SAD)/food-effect plasma pharmacokinetics; format: in vivo, human; settings: for Cmax / Tmax / AUC(0-inf) / half-life: human, plasma, oral; for AUC(0-inf): read-out: AUC0-inf (mean)
Experimental: Part A was a single ascending dose cohort study in which healthy, young subjects (less than 65 years old) received one dose of study drug in the morning after an overnight fast. Cohort dosing started at 10 mg and increased to 30 mg, 90 mg, 180 mg, 450 mg, and 1120 mg in subsequent cohorts. Six drug-treated and two placebo-treated subjects were randomized in each cohort. A seventh cohort of six subjects each received a single 90 mg dose of drug 30 min. after a meal. Following completion of all safety assessments and blood draws for PK analyses, subjects were discharged on Day 3.
In Part A, blood draws for assessment of PK parameters occurred pre-dose and at 15, 30, 45, 60, and 90 minutes post dose as well as at 2, 3, 4, 8, 12, 24, 36, and 48 hours post dose. […] In Part B, blood samples for plasma PK analysis were taken on Day 1 at pre-dose and at 2 hours post-dose, on Day 3 at pre-dose and at 15, 30 and 45 minutes and 1, 2, 3, 4, 8, 12 and 24 hours post-dose, on Days 4, 6, 8 and 10 at pre-dose and at 1.5 hours post-dose and following the final dose on Day 14 at pre-dose and 15, 30 and 45 minutes and 1, 2, 4, 8, 12, 24, 36 and 48 hours post-dose.
This was assessed by analysis of variance (ANOVA) of log-transformed Cmax, AUC0-24, AUC0-48, and/or AUC0-inf, using a model with factors for treatment (fed status or age [young vs. elderly] status) and subject within sequence. Treatment mean differences and 90% confidence intervals of the log transformed PK parameters were back-transformed, to present the geometric least squares means ratios and 90% confidence limits.

CYP isoenzymes = test: Drug interaction studies
[3] = 30 mg, single 30 mg, fasted (n = 6)
[4] = 90 mg, single 90 mg, fasted (n = 6)
[5] = 90 mg, single 90 mg, fed (n = 6)
[6] = 180 mg, single 180 mg, fasted (n = 6)
[7] = 450 mg, single 450 mg, fasted (n = 6)
[8] = 1120 mg, single 1120 mg, fasted (n = 6)
[9] = single 90 mg, geometric least-squares mean

## CC(C)(C)Oc1cc(CCC(C)(C)N2Cc3ccc(S(C)(=O)=O)cc3C2)ccc1O [CT1812]
[1]
  full length neurogranin protein expression in neurons: restores neurogranin expression
[2]; 90 mg fed vs. fasted
  food effect on CT1812 exposure: not considered clinically significant; also recorded: no significant difference
[2]; SAD 10 mg to 1120 mg
  Cmax and AUC / plasma concentration vs dose: dose proportional; also recorded: slightly greater than proportional with dose; also recorded: slightly greater than dose proportionally
[2]; 10 mg, single 10 mg, fasted, Day 1 (n = 6)
  Cmax: 5.07 ng/mL
[2]; 10 mg, single 10 mg, fasted, Day 1 (n = 6), read-out: Tmax (median)
  Tmax: 1.5 h
[2]; 10 mg, single 10 mg, fasted, Day 1, n = 5
  AUC(0-inf): 30.6 ng·h/mL
[2]; 10 mg, single 10 mg, fasted, Day 1, n = 5, read-out: t1/2 (mean) (converted)
  half-life: 12 h
[2]; [3]
  Cmax: 19.5 ng/mL
  AUC(0-inf): 77.2 ng·h/mL
[2]; 30 mg, single 30 mg, fasted (n = 6), read-out: Tmax (median)
  Tmax: 0.88 h
[2]; 30 mg, single 30 mg, fasted (n = 6), read-out: t1/2 (mean) (converted)
  half-life: 14 h
[2]; [4]
  Cmax: 109 ng/mL
  AUC(0-inf): 305 ng·h/mL
[2]; 90 mg, single 90 mg, fasted (n = 6), read-out: Tmax (median)
  Tmax: 1.25 h
[2]; 90 mg, single 90 mg, fasted (n = 6), read-out: t1/2 (mean) (converted)
  half-life: 12.1 h
[2]; [5]
  Cmax: 81.7 ng/mL
  AUC(0-inf): 261 ng·h/mL
[2]; 90 mg, single 90 mg, fed (n = 6), read-out: Tmax (median)
  Tmax: 1.5 h
[2]; 90 mg, single 90 mg, fed (n = 6), read-out: t1/2 (mean) (converted)
  half-life: 11.6 h
[2]; [6]
  Cmax: 161 ng/mL
  AUC(0-inf): 478 ng·h/mL
[2]; 180 mg, single 180 mg, fasted (n = 6), read-out: Tmax (median)
  Tmax: 1.25 h
[2]; 180 mg, single 180 mg, fasted (n = 6), read-out: t1/2 (mean) (converted)
  half-life: 11.1 h
[2]; [7]
  Cmax: 504 ng/mL
  AUC(0-inf): 1750 ng·h/mL
[2]; 450 mg, single 450 mg, fasted (n = 6), read-out: Tmax (median)
  Tmax: 1.5 h
[2]; 450 mg, single 450 mg, fasted (n = 6), read-out: t1/2 (mean) (converted)
  half-life: 12.2 h
[2]; [8]
  Cmax: 1460 ng/mL
  AUC(0-inf): 6320 ng·h/mL
[2]; 1120 mg, single 1120 mg, fasted (n = 6), read-out: Tmax (median)
  Tmax: 1.5 h
[2]; 1120 mg, single 1120 mg, fasted (n = 6), read-out: t1/2 (mean) (converted)
  half-life: 11.8 h
[2]; part A (SAD), 10-1120 mg, read-out: median Tmax in plasma, range over doses
  Tmax: 0.88 to 1.5 h
[2]; part A (SAD), read-out: apparent mean half-life, range over doses
  half-life: 11.1 to 14 h
[2]; [9]
  AUC0-48h lower under fed vs fasted conditions: ~20%
  AUC0-inf lower under fed vs fasted conditions: ~20%
  Cmax lower under fed vs fasted conditions: approximately 40%
CYP isoenzymes
  interactions with CYP isoenzymes: minor interactions
